The supplement of paper PMC10307832

Assays:
Experiment in all cases: relative viability (nuclei count vs DMSO), 5 days (fraction); higher = more cells survive
[1] = compound: O=C(O)c1ccc2c(c1)nc(Nc1cccc(Cl)c1)c1ccncc12 [Silmitasertib]
Summary of the method: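 For viability, nuclei in each treated well were divided by nuclei in vehicle wells and the median across plates was taken. Lung cancer cell lines in 1536-well plates were pinned with five library-drug doses (not always all listed) spaced by √10, cultured 5 days without medium change, and imaged at 4× after Hoechst staining, with plates passing only at control CV below 25% and at least one doubling.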

[2] = compound: O=C(O)c1ccc2c(c1)nc(Nc1cccc(Cl)c1)c1ccncc12 [Silmitasertib] + Nc1ncn([C@H]2C[C@H](O)[C@@H](CO)O2)c(=O)n1 [Decitabine] (partner 2 µM)
Summary of the method: (§1)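 Dosing by pin tool came one day after lung cancer cell lines were seeded in 1536-well plates, using either one drug or a fixed anchor-drug dose plus five library-drug doses (not always all listed) in √10 steps. After 5 days, nuclei were counted on 4× images. Relative viability is treated-well nuclei count divided by vehicle-well nuclei count, and values are medians of duplicate plates.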

[3] = compound: O=C(O)c1ccc2c(c1)nc(Nc1cccc(Cl)c1)c1ccncc12 [Silmitasertib] + Nc1nc2[nH]cc(CCc3ccc(C(=O)N[C@@H](CCC(=O)O)C(=O)O)cc3)c2c(=O)[nH]1 [Pemetrexed] (partner 0.2 µM)
Summary of the method: as §1

[4] = compound: O=C(O)c1ccc2c(c1)nc(Nc1cccc(Cl)c1)c1ccncc12 [Silmitasertib] + CC(=O)Nc1cccc(-n2c(=O)n(C3CC3)c(=O)c3c(Nc4ccc(I)cc4F)n(C)c(=O)c(C)c32)c1 [Trametinib] (partner 0.02 µM)
Summary of the method: as §1

[5] = compound: O=C(O)c1ccc2c(c1)nc(Nc1cccc(Cl)c1)c1ccncc12 [Silmitasertib] + Cc1cc(Nc2cc(N3CCN(C)CC3)nc(Sc3ccc(NC(=O)C4CC4)cc3)n2)n[nH]1 [Tozasertib] (partner 0.1 µM)
Summary of the method: as §1

[6] = compound: O=C(O)c1ccc2c(c1)nc(Nc1cccc(Cl)c1)c1ccncc12 [Silmitasertib] + O=C(CCCCCCC(=O)Nc1ccccc1)NO [Vorinostat] (partner 1 µM)
Summary of the method: as §1

[7] = compound: O=C(O)c1ccc2c(c1)nc(Nc1cccc(Cl)c1)c1ccncc12 [Silmitasertib] + NC(=O)Nc1cc(-c2cccc(F)c2)sc1C(=O)N[C@H]1CCCNC1 [AZD7762] (partner 0.2 µM)
Summary of the method: as §1

[8] = compound: O=C(O)c1ccc2c(c1)nc(Nc1cccc(Cl)c1)c1ccncc12 [Silmitasertib] + CC(=O)c1c(C)c2cnc(Nc3ccc(N4CCNCC4)cn3)nc2n(C2CCCC2)c1=O [Palbociclib] (partner 0.5 µM)
Summary of the method: as §1

[9] = compound: O=C(O)c1ccc2c(c1)nc(Nc1cccc(Cl)c1)c1ccncc12 [Silmitasertib] + COc1cccc2cc(-c3nc([C@H]4CC[C@H](C(=O)O)CC4)n4ncnc(N)c34)[nH]c12 [OSI-027] (partner 0.5 µM)
Summary of the method: as §1

[10] = compound: O=C(O)c1ccc2c(c1)nc(Nc1cccc(Cl)c1)c1ccncc12 [Silmitasertib] + O=C(c1cc(Cc2n[nH]c(=O)c3ccccc23)ccc1F)N1CCN(C(=O)C2CC2)CC1 [Olaparib] (partner 8 µM)
Summary of the method: as §1

NCI-H1648
relative viability ([1]; 0.04 µM): 1.26
relative viability ([1]; 0.4 µM): 0.63
relative viability ([1]; 1.265 µM): 0.889
relative viability ([1]; 4 µM): 0.684
relative viability ([2]; first compound 0.04 µM): 0.49
relative viability ([2]; first compound 0.4 µM): 0.55
relative viability ([2]; first compound 1.265 µM): 0.494
relative viability ([2]; first compound 4 µM): 0.559
relative viability ([3]; first compound 0.04 µM): 0.689
relative viability ([3]; first compound 0.4 µM): 0.699
relative viability ([3]; first compound 1.265 µM): 0.863
relative viability ([3]; first compound 4 µM): 0.679
relative viability ([4]; first compound 0.04 µM): 0.634
relative viability ([4]; first compound 0.4 µM): 0.366
relative viability ([4]; first compound 1.265 µM): 0.474
relative viability ([4]; first compound 4 µM): 0.527
relative viability ([5]; first compound 0.04 µM): 0.61
relative viability ([5]; first compound 1.265 µM): 0.283
relative viability ([5]; first compound 4 µM): 0.363
relative viability ([6]; first compound 0.04 µM): 0.435
relative viability ([6]; first compound 0.4 µM): 0.517
relative viability ([6]; first compound 1.265 µM): 0.271
relative viability ([6]; first compound 4 µM): 0.574
relative viability ([7]; first compound 0.04 µM): 0.709
relative viability ([7]; first compound 0.4 µM): 0.624
relative viability ([7]; first compound 1.265 µM): 0.739
relative viability ([7]; first compound 4 µM): 0.423
relative viability ([8]; first compound 0.04 µM): 0.256
relative viability ([8]; first compound 0.4 µM): 0.229
relative viability ([8]; first compound 1.265 µM): 0.301
relative viability ([8]; first compound 4 µM): 0.327
relative viability ([9]; first compound 0.04 µM): 0.255
relative viability ([9]; first compound 1.265 µM): 0.267
relative viability ([9]; first compound 4 µM): 0.245
relative viability ([10]; first compound 0.04 µM): 0.84
relative viability ([10]; first compound 0.4 µM): 0.525
relative viability ([10]; first compound 1.265 µM): 1.07
relative viability ([10]; first compound 4 µM): 0.876
